Laboratory results: patent US20130109751A1, “LSD-1 ENZYME INHIBITORS FOR INDUCING OSTEOGENIC DIFFERENTIATION” ([…].R.L., priority 2011, published 2013)

Experiments:
Type in all cases: cell-based, mice
[1] = tested on: W20-17 cells; test: Alizarin Red staining of mineralised nodules under different growth conditions (minimum medium); settings: 21 days, absence of dexamethasone and ascorbic acid, glycerol 2-phosphate necessary
Method: On the 21st day, the presence of mineralised matrix was evaluated by histochemical staining with Alizarin Red. The cells were washed with PBS, fixed with a 10% formaldehyde solution, and incubated with a 2% solution of Alizarin Red (pH 4.1-4.3) for one hour.
To evaluate the minimum composition of a medium capable of inducing the formation of mineralised matrix, W20-17 cells were seeded in a 96-well plate and cultured for 21 days under different growth conditions.
At the end of the treatment the cells were stained with Alizarin Red, as described in example 2, to evaluate the formation of mineralised nodules.

[2] = tested on: W20-17 cells; test: Expression profile of osteogenic markers by real-time PCR; settings: osteogenic medium, 21 days' treatment, normalised to GAPDH, vs osteogenic medium alone
[3] = molecular target: T1, LSD-1 (Mus musculus, UniProt Q6ZQ88); test: In vitro enzymatic activity assay of LSD-1 on W20-17 cells; settings: osteogenic medium supplemented with compound, vs osteogenic medium
T1 construct: endogenous in cells; host or cells: W20-17 cells
Method: To evaluate whether the activity of enzyme LSD-1 is inhibited during osteogenic differentiation, an in vitro enzymatic activity assay was performed on W20-17 cells to assess the percentage inhibition of LSD-1 activity under different conditions.

| Compound | mineralisation (Alizarin Red, mineralised nodules) [1] | expression of late marker osteocalcin [2] | percentage inhibition of LSD-1 activity [3] |
| --- | --- | --- | --- |
| N[C@@H]1C[C@H]1c1ccccc1 (racemic) [tranylcypromine, reference compound] | promotes mineralisation | – | – |
| NC1CC1c1ccc(NC(=O)C(Cc2ccccc2)NC(=O)OCc2ccccc2)cc1 (stereo not shown) [MC2580] | promotes mineralisation | most marked | percentage inhibition increases |
